Test [1] relates to HepG2. Kind of test: Induction of cell cycle arrest in human HepG2 cells assessed as accumulation at G2/M phase at 2 uM incubated for 24 hrs by propidium iodide staining based flow cytometry (reference value: 33.49%). It is filed as functional. On the technique in general: Flow cytometry measures light scatter and fluorescence of single cells or particles in a stream.
In test [2] the test system is HepG2. Kind of test: Induction of cell cycle arrest in human HepG2 cells assessed as accumulation at G2/M phase at 8 uM incubated for 24 hrs by propidium iodide staining based flow cytometry (reference value: 33.49%). Format: functional.
Test [3] concerns the target T1, Mitogen-activated protein kinase kinase kinase 7 (Homo sapiens, UniProt O43318).
T1 sequence (O43318 whole entry): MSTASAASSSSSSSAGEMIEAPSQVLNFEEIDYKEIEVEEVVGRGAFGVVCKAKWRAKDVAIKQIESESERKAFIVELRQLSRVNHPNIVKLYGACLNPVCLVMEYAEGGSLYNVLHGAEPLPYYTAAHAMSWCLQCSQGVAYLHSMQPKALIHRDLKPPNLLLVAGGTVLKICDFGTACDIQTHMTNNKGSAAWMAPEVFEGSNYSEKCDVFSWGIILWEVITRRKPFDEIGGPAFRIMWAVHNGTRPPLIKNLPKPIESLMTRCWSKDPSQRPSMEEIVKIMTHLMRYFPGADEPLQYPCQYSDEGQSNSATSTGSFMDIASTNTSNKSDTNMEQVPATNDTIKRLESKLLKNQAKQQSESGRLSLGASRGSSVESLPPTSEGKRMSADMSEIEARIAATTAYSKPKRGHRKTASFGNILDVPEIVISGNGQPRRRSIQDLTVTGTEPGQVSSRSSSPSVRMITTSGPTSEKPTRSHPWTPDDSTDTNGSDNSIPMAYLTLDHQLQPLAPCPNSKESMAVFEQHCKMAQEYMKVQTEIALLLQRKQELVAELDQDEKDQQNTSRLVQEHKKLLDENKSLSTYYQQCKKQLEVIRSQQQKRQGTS
As to the kind of experiment: Inhibition of TAK1 (unknown origin).

Each structure is given as a SMILES string.

As a reminder, the IC50 is the concentration needed to halve the response being measured. A higher IC50 goes with lower potency. Take `C[C@H](CO)n1cnnc1-c1cccc(NC(=O)Nc2cc3ccccn3n2)n1`: the Activity in test [1] is on record as 34.32%; in test [2], 35.02%. Moreover, the IC50 in test [3] was determined as 4.98 µM.
